Experimental findings from patent US10508077B2 (FORMA Therapeutics, Inc., priority 2015, dated 2019) are described below.

This assay deals with T1, Full length human recombinant HDAC8 protein (Homo sapiens, UniProt Q9BY41).
T1 construct: Full length human recombinant HDAC8 protein was expressed in baculoviral system; made in house
T1 sequence (Q9BY41 1-377): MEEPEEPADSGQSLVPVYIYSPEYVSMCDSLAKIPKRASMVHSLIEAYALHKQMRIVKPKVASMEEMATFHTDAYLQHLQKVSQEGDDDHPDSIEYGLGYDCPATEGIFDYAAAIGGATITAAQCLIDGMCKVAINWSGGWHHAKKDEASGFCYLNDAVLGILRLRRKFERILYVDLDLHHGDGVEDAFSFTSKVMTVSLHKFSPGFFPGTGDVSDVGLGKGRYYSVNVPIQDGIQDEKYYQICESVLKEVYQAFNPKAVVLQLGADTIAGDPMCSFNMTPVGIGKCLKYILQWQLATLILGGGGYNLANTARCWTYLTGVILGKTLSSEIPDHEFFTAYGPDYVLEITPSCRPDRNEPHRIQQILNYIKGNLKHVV
As to the kind of experiment: In vitro histone deacetylase assay: enzymatic HDAC8 assay, electrophoretic mobility shift. It counts as biochemical. The settings on record: substrate RHKK(Ac)-NH2, 1 nM enzyme, compounds listed under IC50 range headings. The method in brief:
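Readout was microfluidic mobility-shift separation of deacetylated product from fluorescent RHKK(Ac)-NH2 substrate (2 µM), after reaction with 1 nM recombinant full-length human HDAC8 at 25 °C, pH 7.5, stopped with SDS. Twelve 3-fold-spaced concentrations tested; product/sum ratios normalized to controls and fitted with a 4-parameter model for IC50.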

Structures are written as SMILES.

For the molecule `O=C(/C=C/c1ccccc1N1CCN(c2ccccc2)C1=O)NO` [Example I-302, (E)-N-hydroxy-3-(2-(2-oxo-3-phenylimidazolidin-1-yl)phenyl)acrylamide], the IC50 was less than 1 µM.

As to `CC(C)(C)OC(=O)N1CCC2(CCC(C(=O)Nc3ccccc3/C=C/C(=O)NO)CC2)CC1` [Example I-47, tert-butyl-(E)-9-((2-(3-(hydroxyamino)-3-oxoprop-1-en-1-yl)phenyl)carbamoyl)-3-azaspiro[5.4]undecane-3-carboxylate], the IC50 was less than 1 µM.

Turning to `O=C(/C=C/c1ccccc1N1CCN(S(=O)(=O)c2cccc3cnccc23)CC1)NO` [Example I-254, (E)-N-hydroxy-3-(2-(4-(isoquinolin-5-ylsulfonyl)piperazin-1-yl)phenyl)acrylamide], the IC50 is less than 1 µM.

With `N#Cc1ccc2nc(CNc3ccccc3/C=C/C(=O)NO)[nH]c2c1` [Example I-51], the IC50 is less than 1 µM.

Take `COc1ccc(S(=O)(=O)NC2CCN(c3ccccc3/C=C/C(=O)NO)CC2)cc1OC` [Example I-233]: the IC50 was less than 1 µM.

With `O=C(/C=C/c1ccccc1N1CCN(C(=O)C2(c3ccc(Cl)cc3)CC2)CC1)NO` [Example I-294, (E)-3-(2-(4-(1-(4-chlorophenyl)cyclopropane-1-carbonyl)piperazin-1-yl)phenyl)-N-hydroxyacrylamide], the concentration for half-maximal inhibition (IC50) was less than 1 µM.

On to `O=C(/C=C/c1ccccc1N1CCC(NC(=O)c2ccc(-n3cccc3)nc2)CC1)NO` [Example I-160], for which the IC50 is less than 1 µM.

`COCC1(C(=O)N2CCN(c3ccccc3/C=C/C(=O)NO)CC2)CCC1` [Example I-21, (E)-N-hydroxy-3-(2-(4-(1-(methoxymethyl)cyclobu-tane-1-carbonyl)piperazin-1-yl)phenyl)acrylamide]: the concentration for half-maximal inhibition (IC50) was 1 to 10 µM.

Turning to `O=C(/C=C/c1ccccc1NCc1nc2ccc(CCCO)cc2[nH]1)NO` [Example I-116, (E)-N-hydroxy-3-(2-(((6-(3-hydroxypropyl)-1H-benzo[d]imidazol-2-yl)methyl)amino)phenyl)acrylamide], the IC50 is less than 1 µM.

Take `O=C(/C=C/c1ccccc1N1CCN(Cc2ccccc2OC(F)F)CC1)NO` [Example I-176, (E)-3-(2-(4-(2-(difluoromethoxy)benzyl)piperazin-1-yl)phenyl)-N-hydroxyacrylamide]: the IC50 is less than 1 µM.

`COc1cc(CC(=O)N2CCN(c3ccccc3/C=C/C(=O)NO)CC2)ccc1O` [Example I-203, (E)-N-hydroxy-3-(2-(4-(2-(4-hydroxy-3-methoxyphenyl)acetyl)piperazin-1-yl)phenyl)acrylamide]: the IC50 is less than 1 µM.

Turning to `CSc1ccc(CC(=O)NC2CCN(c3ccccc3/C=C/C(=O)NO)CC2)cc1` [Example I-156], the half-maximal inhibitory concentration (IC50) was less than 1 µM.

In the case of `O=C(/C=C/c1ccccc1N1CCN(S(=O)(=O)c2ccc(OC(F)F)cc2)CC1)NO` [Example I-30, (E)-3-(2-(4-((4-(difluoromethoxy)phenyl)sulfonyl)piperazin-1-yl)phenyl)-N-hydroxyacrylamide], the IC50 is 1 to 10 µM.

`O=C(/C=C/c1ccccc1N1CCC(NS(=O)(=O)c2ccc(F)cc2)CC1)NO` [Example I-222, (E)-3-(2-(4-((4-fluorophenyl)sulfonamido)piperidin-1-yl)phenyl)-N-hydroxyacrylamide]: the IC50 is less than 1 µM.

As to `CN(C)Cc1cccc(CNC2CCN(c3ccccc3/C=C/C(=O)NO)CC2)c1` [Example I-18, (E)-3-(2-(4-((3-((dimethylamino)methyl)benzyl)amino)piperidin-1-yl)phenyl)-N-hydroxyacrylamide], the half-inhibitory concentration (IC50) is 1 to 10 µM.

With `O=C(/C=C/c1ccccc1N1CCC(NS(=O)(=O)Cc2cccc(Cl)c2)CC1)NO` [Example I-229, (E)-3-(2-(4-(((3-chlorophenyl)methyl)sul-fonamido)piperidin-1-yl)phenyl)-N-hydroxyacrylamide], the IC50 is less than 1 µM.

For the molecule `O=C(/C=C/c1ccccc1NC1CCN(Cc2ccc(F)cc2)C1)NO` (centres unmarked) [Example I-330, (E)-3-(2-((1-(4-fluorobenzyl)pyrrolidin-3-yl)amino)phenyl)-N-hydroxyacrylamide], the half-inhibitory concentration (IC50) is less than 1 µM.

Take `O=C(/C=C/c1ccccc1N1CCN(C(=O)C2(c3cnccn3)CC2)CC1)NO` [Example I-35, (2E)-N-hydroxy-3-(2-{4-[1-(pyrazin-2-yl)cyclopropanecarbonyl]piperazin-1-yl}phenyl)prop-2-enamide]: the IC50 is 1 to 10 µM.

In the case of `CC(C)(C)OC(=O)N1CCC2(CC1)CCN(c1ccccc1/C=C/C(=O)NO)CC2` [Example I-50, tert-butyl-(E)-9-(2-(3-(hydroxyamino)-3-oxoprop-1-en-1-yl)phenyl)-3,9-diazaspiro[5.5]undecane-3-carboxylate], the half-maximal inhibitory concentration (IC50) was less than 1 µM.

For `O=C(/C=C/c1ccccc1N1CCN(S(=O)(=O)C2CCCC2)CC1)NO` [Example I-250], the IC50 is less than 1 µM.

For `O=C(/C=C/c1ccccc1N1CCN(C(=O)C2(c3ccccc3)CC2)CC1)NO` [Example I-36, (E)-N-hydroxy-3-(2-(4-(1-phenylcyclopropane-1-carbonyl)piperazin-1-yl)phenyl)acrylamide], the IC50 fell in the range of 1 to 10 µM.

As for `Cn1ccc(S(=O)(=O)N2CCN(c3ccccc3/C=C/C(=O)NO)CC2)n1` [Example I-244, (E)-N-hydroxy-3-(2-(4-((1-methyl-1H-pyrazol-3-yl)sulfonyl)piperazin-1-yl)phenyl)acrylamide], the IC50 was less than 1 µM.

For the molecule `COc1cncc(CNc2ccccc2/C=C/C(=O)NO)c1` [Example I-90], the IC50 was less than 1 µM.

With `Cc1oc(-c2ccc(Cl)cc2)cc1C(=O)NC1CCN(c2ccccc2/C=C/C(=O)NO)CC1` [Example I-15], the IC50 is 1 to 10 µM.

Turning to `O=C(/C=C/c1ccccc1N1CCNCC1)NO` [Example I-59, (E)-N-hydroxy-3-(2-(piperazin-1-yl)phenyl)acrylamide 2,2,2-trifluoroacetate], the half-inhibitory concentration (IC50) is less than 1 µM.

On to `CC(C)(C)OC(=O)N1CC(=O)N(c2ccccc2/C=C/C(=O)NO)C1` [Example I-261, tert-butyl (E)-3-(2-(3-(hydroxyamino)-3-oxoprop-1-en-1-yl)phenyl)-4-oxoimidazolidine-1-carboxylate], for which the 50% inhibitory concentration (IC50) is less than 1 µM.

Regarding `COc1ccc(OC)c(S(=O)(=O)N2CCN(c3ccccc3/C=C/C(=O)NO)CC2)c1` [Example I-34], the IC50 is 1 to 10 µM.

Consider `CC(C)(C)OC(=O)N1CCC2(CCN(c3ccccc3/C=C/C(=O)NO)C2)C1` (centres unmarked) [Example I-112, tert-butyl (E)-7-(2-(3-(hydroxyamino)-3-oxoprop-1-en-1-yl)phenyl)-2,7-dizazspiro[4.4]nonane-2-carboxylate], for which the half-maximal inhibitory concentration (IC50) is less than 1 µM.

On to `O=C(/C=C/c1ccccc1NC(=O)c1ccnc(N2CCOCC2)c1)NO` [Example I-305, (E)-N-(2-(3-(hydroxyamino)-3-oxoprop-1-en-1-yl)phenyl)-2-morpholinoisonicotinamide], for which the IC50 is less than 1 µM.

For the molecule `O=C(/C=C/c1ccccc1N1CCN(S(=O)(=O)c2ccccc2OC(F)(F)F)CC1)NO` [Example I-29, (E)-N-hydroxy-3-(2-(4-((2-(trifluoromethoxy)phenyl)sulfonyl)piperazin-1-yl)phenyl)acrylamide], the IC50 lay within 1 to 10 µM.

For `Cc1nc(CC(=O)N2CCN(c3ccccc3/C=C/C(=O)NO)CC2)c(C)s1` [Example I-211], the IC50 was less than 1 µM.

For the molecule `CCSCC(=O)NC1CCN(c2ccccc2/C=C/C(=O)NO)CC1` [Example I-131], the IC50 is less than 1 µM.

Consider `CC(CN1CCN(c2ccccc2/C=C/C(=O)NO)CC1)c1ccccc1` (centres unmarked) [Example I-300, (E)-N-hydroxy-3-(2-(4-(2-phenylpropyl)piperazin-1-yl)phenyl)acrylamide], for which the half-inhibitory concentration (IC50) is less than 1 µM.

Turning to `O=C(/C=C/c1ccccc1NCc1nc2ccc(C(F)(F)F)cc2[nH]1)NO` [Example I-4, (E)-N-hydroxy-3-(2-(((6-(trifluoromethyl)-1H-benzo[d]imidazol-2-yl)methyl)amino)phenyl)acrylamide], the IC50 lay in the range of 1 to 10 µM.

In the case of `O=C(/C=C/c1ccccc1N1CCN(Cc2cc3c(cc2Cl)OCO3)CC1)NO` [Example I-175, (E)-3-(2-(4-((6-chlorobenzo[d][1,3]dioxol-5-yl)methyl)piperazin-1-yl)phenyl)-N-hydroxyacrylamide], the IC50 is less than 1 µM.

As to `O=C(/C=C/c1ccccc1N1CCC(NC(=O)c2cccnc2)CC1)NO` [Example I-132], the IC50 is less than 1 µM.

Turning to `O=C(/C=C/c1ccccc1N1CCC(NC(=O)Cc2ccc(F)cc2)CC1)NO` [Example I-331, (E)-3-(2-(4-(2-(4-fluorophenyl)acetamido)piperidin-1-yl)phenyl)-N-hydroxyacrylamide], the IC50 was less than 1 µM.

In the case of `O=C(/C=C/c1ccccc1N1CCN(Cc2ccccn2)CC1)NO` [Example I-168, (E)-N-hydroxy-3-(2-(4-(pyridin-2-ylmethyl)piperazin-1-yl)phenyl)acrylamide], the IC50 was less than 1 µM.
